Key:
Preliminary salt screen = format: physicochemical; conditions: equi-millimolar base and acid, 2-propanol or acetonitrile, alternative solvents
Protocol: Test tubes (4 mL), provided with magnetic stir bars, were charged with equi-milimolar amounts of (R)-3-((E)-2-(pyrrolidin-3-yl)vinyl)-5-(tetrahydropyran-4-yloxy)pyridine base and the acid of interest (neat) and dissolved with 500 μL of either 2-propanol or acetonitrile with the aid of heat.
If no precipitation occurred, the solvent was evaporated under a nitrogen stream with moderate heating and an alternative solvent was tried. Alternative solvents included acetone, ethyl acetate, isopropyl acetate, absolute ethanol, acetonitrile, hexane, tert-butanol, tert-butyl acetate, and blends thereof.
The use of alcohols was avoided in the case of sulfonic acids.

[1] = set-up: species or system human
Excerpt: Therefore any variation of (R)-3-((E)-2-(pyrrolidin-3-yl)vinyl)-5-(tetrahydropyran-4-yloxy)pyridine or a salt thereof metabolism in human due to CYP polymorphism is expected to be less than 2 fold due to the significant renal clearance and low hepatic clearance.

panel of 65 receptors = experiment: Multiple receptor screening assay; format: binding; conditions: single concentration of 10 μM
Protocol: (R)-3-((E)-2-(Pyrrolidin-3-yl)vinyl)-5-(tetrahydropyran-4-yloxy)pyridine or a salt thereof was tested for selectivity against a panel of 65 receptors.

normal rats = experiment: Novel object recognition (NOR) task; format: in vivo, rat; conditions: for NOR time after dosing with statistically significant effect (out to / up to): 0.004 μmol/kg oral (FIG. 2)
Protocol: Memory was assessed by using a three-trial novel object recognition test (Luine et al., Pharm. Biochem. Behav. 74, 213-220 (2002)). On the first day (exploratory trial), rats were allowed to explore an open arena (44.5×44.5×30.5 cm) for 6 min. On the second day (acquisition trial), rats were allowed to explore the same arena in the presence of two identical objects (both object A) for 3 min. On the third day (retention or recall trial), performance was evaluated by allowing the same animal to re-explore the arena for 3 min in the presence of two different objects: the familiar object A and a novel object B. An inter-trial interval of 24 h was imposed between the three NOR trials. Recognition memory was assessed by comparing the time spent exploring a novel (object B) versus a familiar (object A) object during the recall trial. Recognition index was assessed for each animal and expressed as a ratio ((time B/time A+time B)×100).
(R)-3-((E)-2-(Pyrrolidin-3-yl)vinyl)-5-(tetrahydropyran-4-yloxy)pyridine or a salt thereof improved long-term visual episodic/declarative memory as assessed by novel object recognition (NOR) task following oral dosing in normal rats. […] In the two “recall only” sessions; subset of animals were orally dosed with water on day 1 (i.e., exploratory session) and day 2 (i.e., acquisition session) and then orally dosed either with 1.1 μmol/kg (R)-3-((E)-2-(pyrrolidin-3-yl)vinyl)-5-(tetrahydropyran-4-yloxy)pyridine or a salt thereof (left panel) or 0.04 μmol/kg (right panel) on day 3 (i.e., recall session). […] In the Figure, the dashed line at 65% denotes subjective criteria for biological cognitive enhancing activity. *P<0.05.
(R)-3-((E)-2-(Pyrrolidin-3-yl)vinyl)-5-(tetrahydropyran-4-yloxy)pyridine or a salt thereof was evaluated for its duration of effect in the NOR task in normal rats. […] In the Figure, the dashed line at 65% denotes subjective criteria for biological cognitive enhancing activity (*P<0.05).

| Compound | Result of preliminary salt screen (physical form obtained) (Preliminary salt screen) | also measured |
| --- | --- | --- |
| Cl [Hydrochloric] | red oil |  |
| CC1(C)[C@@H](C(=O)O)CC[C@@]1(C)C(=O)O [(1 R,3S)-(+)-Camphoric] | oil |  |
| Fumaric | oil |  |
| O=C[C@H](O)[C@@H](O)[C@H](O)[C@H](O)C(=O)O [D-glucuronic] | brown gum |  |
| C(=C\[C@H]1CCNC1)/c1cncc(OC2CCOCC2)c1 [Compound A, (R)-3-((E)-2-(pyrrolidin-3-yl)vinyl)-5-(tetrahydropyran-4-yloxy)pyridine] |  | variation of metabolism due to CYP polymorphism [1]: less than 2 fold; renal clearance contribution to total clearance ([1]; human): more than 50%; Multiple receptor screening assay, receptors hit (panel of 65 receptors): only to neuronal nicotinic receptors; Multiple receptor screening assay, receptors hit (panel of 65 receptors; listed as (R)-3-(2-(pyrrolidin-3-yl)vinyl)-5-((tetrahydro-2H-pyran-4-yl)oxy)pyridine): Only nicotinic; NOR time after dosing with statistically significant effect (out to / up to) (normal rats): ≤ 8 h; NOR time after dosing with statistically significant effect (out to / up to) (normal rats; listed as (R)-3-((E)-2-(pyrrolidin-3-yl)vinyl)-5-(tetrahydropyran-4-yloxy)pyridine): up to 8 h; NOR time after dosing with statistically significant effect (out to / up to) (normal rats; listed as Formula I): ≤ 8 h; NOR doses with statistically significant effect (as low as) (normal rats; FIG. 1): ≥ 0.004 µM/kg; NOR minimum effect dose (MED) level (normal rats; follow-up NOR study, oral, rats): 0.004 µmol/kg; NOR recognition index, recall only sessions (normal rats; single oral administration on day 3, 1.1 μmol/kg or 0.04 μmol/kg): recognition indexes significantly above controls |
| L-Tartaric | Oil |  |
| CC(=O)Nc1ccc(C(=O)O)cc1 [4-Acetamidobenzoic] | oil |  |
| O=C(O)c1ccc2ccccc2c1O [1-Hydroxy-2-naphthoic (Xinafoic)] | brown gum |  |
| CC1(C)[C@@H]2CC[C@@]1(CS(=O)(=O)O)C(=O)C2 [(1 S)-(+)-1 O-Camphorsulfonic] | oil |  |
| O=C(O)CCCCC(=O)O [Adipic] | oil |  |
| O=C(O)/C=C\C(=O)O [Maleic] | Oil |  |
| O=C(O)CC(=O)O [Malonic] | Oil |  |
| O=C(O)CCC(=O)O [Succinic] | red oil |  |
| CS(=O)(=O)O [Methanesulfonic] | Oil |  |
| C(=C\[C@H]1CCNC1)/c1cncc(OC2CCOCC2)c1.O=C(O)C[C@H](O)C(=O)O [(R)-3-((E)-2-(pyrrolidin-3-yl)vinyl)-5-(tetrahydropyran-4-yloxy)pyridine mono-L-malate] | Crystals |  |
| O=C(O)c1ccc(O)cc1 [4-Hydroxybenzoic] | tacky gum |  |
| O=C(O)CC(O)(CC(=O)O)C(=O)O [Citric] | tacky gum |  |
| COc1ccc(C(=O)O)cc1 [4-Methoxybenzoic] | Oil |  |
| Cc1ccc(S(=O)(=O)O)cc1.O [p-Toluenesulfonic.H20] | Oil |  |

— patent US8633227B2, “Synthesis and novel salt forms of (R)-3-((E)-pyrrolidin-3-yl)vinyl)-5-tetrahydropyran-4-yloxy)pyridine” (priority 2008, dated 2014)
